Read-outs that look alike come from different tables or passages of the source.
Experiments:
[1] = molecular target: T1, human ghrelin receptor (hGHS-R1a) (Homo sapiens, UniProt Q92847); test: Aequorin functional assay (ghrelin receptor), CHO-K1 cells co-expressing Gα16 and aequorin; assay type: cell-based; conditions: read-out: EC50
T1 construct: host or cells: CHO-K1 co-expressing Gα16 and mitochondrially targeted aequorin
Method in brief: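 CHO-K1 cells expressing hGHS-R1a, Gα16 and mitochondrial aequorin, loaded overnight at rt with 5 μM coelenterazine, then challenged in DMEM/0.1% BSA pH 7.0 with compound at 0.001–10 μM (DMSO <0.6%).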

[2] = test system: rat model of post-operative ileus (POI); test: Gastric emptying and intestinal transit in rat model of postoperative ileus; assay type: in vivo
Source text: This clinically relevant model for POI is adapted from that of […].; Simmons, R. L.; Bauer, A. J. Surgical manipulation of the gut elicits an intestinal muscularis inflammatory response resulting in postsurgical ileus. Ann. Surg. 1998, 228, 652-663.) Other known models can also be used to study the effect of compounds of the invention. […] Rat, Sprague-Dawley, male, 300 g. • 2. Fasted O/N prior to study. • 1. Isofluorane anaesthesia under sterile conditions. • 2. Midline abdominal incision. • 3. Intestines and caecum were eviscerated and kept moist with saline. • 4. the intestines and caecum were manipulated along its entire length with moist cotton applicators analogous to the 'running of the bowel' in the clinical setting. This procedure was timed to last for 10 min. • 5. Intestines were gently replaced into the abdomen and the abdominal wound was stitched closed under sterile conditions. • 1. Rat was allowed to recover from isofluorane anaesthesia. • 2. Test compounds (or vehicle) were administered intravenously via previously implanted jugular catheter. • 3. Immediate intragastric gavage of methylcellulose (2%) labeled with radioactive ^99mTc, T=0. • 1. At t=15 min, animal was euthanized with CO2. • 2. Stomach and 10 cm sections along the small intestine were immediately ligated, cut and placed in tubes for measuring of ^99mTc in gamma counter. • 3. Stomach emptying and small intestinal transit were measured by calculation of the geometric mean. Geometric mean=Σ(% total radioactivity×number of segment)/100 • 1. Model adapted from Kälff et al. (1998), Ann Surg 228:652-63. • 2. Rats (male, Sprague-Dawley, 250-300 g) were implanted with jugular vein catheters to accommodate dosing of test articles. • 3. Rats were fasted O/N, anesthetized with isofluorane and subjected to abdominal surgery. • 4. Following an abdominal incision, the smalt intestine caecum and large intestine were eviscerated for a period of 15 min and kept moist with saline. • 5. […] Radioactivity (^99mTc) in each tissue isolate was measured as a means of measuring the transit of the meal.

[3] = molecular target: T2, human growth hormone secretagogue receptor (hGHS-R1a) (Homo sapiens, UniProt Q92847); test: Competitive radioligand binding assay (ghrelin receptor), [125I]-ghrelin displacement on GHS-R/HEK 293 membranes; conditions: for Ki: read-out: Ki
T2 construct: purchased PerkinElmer BioSignal #RBHGHSM; host or cells: HEK-293, stably transfected
T2 sequence (Q92847 whole entry): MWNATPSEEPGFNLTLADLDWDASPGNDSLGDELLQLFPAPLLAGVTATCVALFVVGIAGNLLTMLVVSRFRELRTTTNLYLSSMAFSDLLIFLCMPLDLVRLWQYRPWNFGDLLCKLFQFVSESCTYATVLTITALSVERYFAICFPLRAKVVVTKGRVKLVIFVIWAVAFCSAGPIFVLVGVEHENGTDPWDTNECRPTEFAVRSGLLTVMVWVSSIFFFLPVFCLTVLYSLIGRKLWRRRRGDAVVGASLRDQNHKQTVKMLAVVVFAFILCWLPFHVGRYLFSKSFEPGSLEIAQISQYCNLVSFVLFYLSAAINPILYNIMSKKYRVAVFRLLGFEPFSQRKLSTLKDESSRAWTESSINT

T1 sequence (Q92847 whole entry): as above

## CC1C(=O)NC(Cc2ccc(F)cc2)C(=O)NCCCc2ccccc2O[C@H](C)CNC(C2CC2)C(=O)N1C (some centres unmarked) [compound 298]
[1]; Table 4, functional (agonist) activity, TFA salts unless otherwise noted
  EC50: 1 to 100 nM
[1]; activation of hGHS-R1a, FIG. 11
  EC50: 25 nM
[2]; 100 μg/kg (i.v.)
  promotion of GI transit (geometric center of the meal) vs POI+vehicle: 2.7 ×
[2]; 100 μg/kg i.v., n=5, FIG. 8
  effect on postoperative ileus vs POI+vehicle treated rats: significantly improves postoperative ileus
[2]; 100 and 300 μg/kg (i.v.)
  gastric emptying and intestinal transit in POI rats: significantly increased gastric emptying and intestinal transit
[3]; Table 3B, binding activity at the human ghrelin receptor
  Ki: 10 to 100 nM
[3]; Table 4, TFA salts unless otherwise noted
  Ki: 10 to 100 nM
[3]; representative binding inhibition curve, FIG. 10
  binding to hGHS-R1a: binds competitively, reversibly, and with high affinity
